Assay results as given in ChEMBL document CHEMBL3856187, “Cyclin Dependent Kinase 9 Inhibitors for Cancer Therapy” (J Med Chem, 2016).
pIC50, pKi: −log10 of the molar value.

What was measured:
CDK9/cyclin T1 [1] = molecular target: T1, CDK9/cyclin T1 (Homo sapiens, UniProt P50750); test: Inhibition of recombinant human full length C-terminal His6-tagged CDK9/cyclin T1 expressed in baculovirus infected Sf21 insect cells using 5TAMRA-cdk7tide as substrate after 4.5 hrs by IMAP assay
[2] = Antiproliferative activity against human HeLa cells after 4 days by crystal violet staining based assay; format: functional, cell-based; settings: 96 h
[3] = Antiproliferative activity against human H460 cells after 4 days by crystal violet staining based assay; format: functional, cell-based; settings: NCI-H460, 96 h
[4] = Antiproliferative activity against mouse B16F10 cells after 4 days by crystal violet staining based assay; format: functional, cell-based; settings: B16-F10, 96 h
[5] = Antiproliferative activity against human HeLa/MaTu/ADR cells after 4 days by crystal violet staining based assay; format: functional, cell-based; settings: 96 h
[6] = molecular target: Cyclin-dependent kinase 2/cyclin E1 (Homo sapiens, UniProt P24941); test: Inhibition of human recombinant GST-tagged CDK2/cyclin E expressed in Sf9 insect cells using biotin-Ttds-YISPLKSPYKISEG as substrate preincubated for 15 mins followed by substrate addition measured after 25 mins by TR-FRET assay
[7] = Antiproliferative activity against human DU145 cells after 4 days by crystal violet staining based assay; format: functional, cell-based; settings: DU-145, 96 h
[8] = Antiproliferative activity against human Caco2 cells after 4 days by crystal violet staining based assay; format: functional, cell-based; settings: Caco-2, 96 h
[9] = Inhibition of M-phase starfish oocytes CDK1/cyclin B after 30 mins by [gamma-33P]ATP based scintillation counting analysis; set-up: species or system Asteroidea
[10] = Cytotoxicity against human HeLa cells assessed as decrease in cell viability after 72 hrs by MTT assay; format: toxicity, cell-based
CDK9/cyclin T1 [11] = molecular target: T1, CDK9/cyclin T1; test: Inhibition of human His6-tagged CDK9/cyclin T1 expressed in baculovirus infected sf9 cells using GST-CTD as substrate after 10 mins in presence of [gamma-32P]ATP by SDS-PAGE analysis
CDK2/Cyclin A2 = CDK2/Cyclin A2 (Homo sapiens, UniProt P24941); test: Inhibition of human full length C-terminal His6-tagged CDK2/N-terminal GST-tagged cyclin A using histone H1 as substrate after 10 mins by [gamma-32P]ATP based binding assay; format: protein-complex assay
[12] = molecular target: CDK9/cyclin T1 (Homo sapiens) (UniProt O60563+P50750); test: Inhibition of human CDK9/cyclin T1 by radiometric assay relative to control; format: protein-complex assay; set-up: concentration or dose not given beside the values; settings: concentration not given here
[13] = molecular target: CDK9/Cyclin K (Homo sapiens) (UniProt P50750+O75909); test: Inhibition of human CDK9/cyclin K by radiometric assay relative to control; format: protein-complex assay; set-up: concentration or dose not given beside the values; settings: concentration not given here
[14] = molecular target: Cyclin-dependent kinase 1 (Homo sapiens, UniProt P06493); test: Inhibition of CDK1 (unknown origin)
[15] = molecular target: Cyclin-dependent kinase 5 (Homo sapiens, UniProt Q00535); test: Inhibition of CDK5 (unknown origin)
[16] = molecular target: Cyclin-dependent kinase 9 (Homo sapiens, UniProt P50750); test: Inhibition of human CDK9 (unknown origin)
[17] = molecular target: Cyclin-dependent kinase 2 (Homo sapiens, UniProt P24941); test: Binding affinity to full length human CDK2 (1 to 298 residues) expressed in bacterial expression system by KINOMEscan competition assay
[18] = molecular target: Cyclin-dependent kinase 3 (Homo sapiens, UniProt Q00526); test: Inhibition of CDK3 (unknown origin)
[19] = molecular target: Cyclin-dependent kinase 4 (Homo sapiens, UniProt P11802); test: Inhibition of CDK4 (unknown origin)
CDK2/Cyclin A1 = CDK2/Cyclin A1 (Homo sapiens, UniProt P24941); test: Inhibition of recombinant human His/GST-tagged CDK2/Cyclin A expressed in baculovirus infected Sf9 cells using Histone H1 as substrate after 80 mins in presence of [33P]ATP by microbeta scintillation counting analysis
[20] = molecular target: Cyclin-dependent kinase 1/cyclin B1 (Homo sapiens, UniProt P06493); test: Inhibition of recombinant human CDK1/cyclin B expressed in baculovirus infected Sf9 insect cells after 80 mins in presence of [33P]ATP by microbeta scintillation counting analysis
CDK3/Cyclin E = CDK3/Cyclin E (Homo sapiens, UniProt Q00526); test: Inhibition of recombinant human CDK3/cyclin E expressed in baculovirus infected Sf9 insect cells after 80 mins in presence of [33P]ATP by microbeta scintillation counting analysis
[21] = molecular target: Cyclin-dependent kinase 5/CDK5 activator 1 (Homo sapiens, UniProt Q00535); test: Inhibition of recombinant human His/GST-tagged CDK5/p35 expressed in baculovirus infected Sf9 insect cells using Rb-CTF as substrate after 80 mins in presence of [33P]ATP by microbeta scintillation counting analysis
CDK9/cyclin T1 [22] = molecular target: T1, CDK9/cyclin T1; test: Inhibition of human recombinant CDK9/cyclin T expressed in baculovirus infected Sf9 insect cells using pRB (773 to 928 residues) as substrate after 30 mins by [gamma-33P]ATP based scintillation counting analysis

T1 sequence (O60563 whole entry): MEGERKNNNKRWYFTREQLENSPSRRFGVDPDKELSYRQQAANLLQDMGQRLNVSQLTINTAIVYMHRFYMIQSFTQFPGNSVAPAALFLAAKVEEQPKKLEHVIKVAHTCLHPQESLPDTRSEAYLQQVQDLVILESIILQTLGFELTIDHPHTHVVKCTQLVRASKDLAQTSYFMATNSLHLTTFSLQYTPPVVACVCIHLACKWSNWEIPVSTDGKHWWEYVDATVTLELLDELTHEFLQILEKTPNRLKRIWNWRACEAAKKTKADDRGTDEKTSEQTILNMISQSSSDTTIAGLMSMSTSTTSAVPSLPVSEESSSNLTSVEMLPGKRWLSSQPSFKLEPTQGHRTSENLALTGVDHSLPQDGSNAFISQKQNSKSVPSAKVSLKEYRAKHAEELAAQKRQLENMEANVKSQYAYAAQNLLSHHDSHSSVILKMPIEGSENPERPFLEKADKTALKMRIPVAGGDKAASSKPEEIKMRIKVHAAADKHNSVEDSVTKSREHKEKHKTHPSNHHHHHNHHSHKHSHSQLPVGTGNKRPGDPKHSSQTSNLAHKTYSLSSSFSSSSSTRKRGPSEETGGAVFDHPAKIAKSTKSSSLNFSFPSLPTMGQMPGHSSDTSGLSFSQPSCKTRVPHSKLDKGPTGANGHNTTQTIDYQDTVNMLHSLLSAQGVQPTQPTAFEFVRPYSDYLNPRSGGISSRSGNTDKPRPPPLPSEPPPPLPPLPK
T1 sequence (P50750 whole entry): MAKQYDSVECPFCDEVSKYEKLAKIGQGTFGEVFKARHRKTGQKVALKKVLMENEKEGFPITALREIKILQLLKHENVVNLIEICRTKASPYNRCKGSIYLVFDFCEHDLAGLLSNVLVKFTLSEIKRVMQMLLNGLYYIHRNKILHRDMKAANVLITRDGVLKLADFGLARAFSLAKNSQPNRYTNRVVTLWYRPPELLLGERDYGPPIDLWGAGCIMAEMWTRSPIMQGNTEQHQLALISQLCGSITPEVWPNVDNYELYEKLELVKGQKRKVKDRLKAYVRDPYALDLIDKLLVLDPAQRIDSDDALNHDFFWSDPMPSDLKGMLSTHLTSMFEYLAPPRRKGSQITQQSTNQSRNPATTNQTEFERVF
CDK3/Cyclin E, sequence (P24864 whole entry): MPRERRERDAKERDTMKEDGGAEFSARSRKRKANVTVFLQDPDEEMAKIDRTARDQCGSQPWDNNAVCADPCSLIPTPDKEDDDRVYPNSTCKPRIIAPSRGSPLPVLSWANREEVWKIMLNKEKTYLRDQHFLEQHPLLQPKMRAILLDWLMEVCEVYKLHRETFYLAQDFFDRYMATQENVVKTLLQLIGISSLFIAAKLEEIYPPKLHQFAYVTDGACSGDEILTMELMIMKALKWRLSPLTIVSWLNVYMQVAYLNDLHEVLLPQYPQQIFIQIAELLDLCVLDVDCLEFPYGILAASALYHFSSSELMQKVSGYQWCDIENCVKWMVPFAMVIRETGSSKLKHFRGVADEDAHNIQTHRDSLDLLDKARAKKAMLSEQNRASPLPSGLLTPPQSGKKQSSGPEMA
CDK3/Cyclin E, sequence (Q00526 whole entry): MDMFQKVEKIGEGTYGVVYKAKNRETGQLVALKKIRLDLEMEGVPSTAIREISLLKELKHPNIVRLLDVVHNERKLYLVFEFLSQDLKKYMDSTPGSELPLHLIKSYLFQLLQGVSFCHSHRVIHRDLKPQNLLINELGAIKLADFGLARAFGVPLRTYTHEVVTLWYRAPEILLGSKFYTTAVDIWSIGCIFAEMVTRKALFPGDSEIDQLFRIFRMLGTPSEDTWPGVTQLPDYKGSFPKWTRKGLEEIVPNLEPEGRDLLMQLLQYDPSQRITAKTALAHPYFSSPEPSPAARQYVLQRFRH
Cyclin-dependent kinase 5, sequence (Q00535 whole entry): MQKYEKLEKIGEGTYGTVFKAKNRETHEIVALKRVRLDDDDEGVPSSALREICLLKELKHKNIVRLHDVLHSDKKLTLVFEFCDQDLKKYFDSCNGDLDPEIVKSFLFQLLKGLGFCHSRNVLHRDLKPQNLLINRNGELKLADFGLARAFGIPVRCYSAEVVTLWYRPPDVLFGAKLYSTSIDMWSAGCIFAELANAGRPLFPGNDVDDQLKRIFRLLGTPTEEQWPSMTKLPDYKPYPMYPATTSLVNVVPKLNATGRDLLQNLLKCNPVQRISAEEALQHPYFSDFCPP
Cyclin-dependent kinase 5/CDK5 activator 1, sequence (Q00535 whole entry, the tested form may be a part): as the sequence (Q00535 whole entry) above
Cyclin-dependent kinase 5/CDK5 activator 1, sequence (Q15078 whole entry, further chain, the tested form may be a part): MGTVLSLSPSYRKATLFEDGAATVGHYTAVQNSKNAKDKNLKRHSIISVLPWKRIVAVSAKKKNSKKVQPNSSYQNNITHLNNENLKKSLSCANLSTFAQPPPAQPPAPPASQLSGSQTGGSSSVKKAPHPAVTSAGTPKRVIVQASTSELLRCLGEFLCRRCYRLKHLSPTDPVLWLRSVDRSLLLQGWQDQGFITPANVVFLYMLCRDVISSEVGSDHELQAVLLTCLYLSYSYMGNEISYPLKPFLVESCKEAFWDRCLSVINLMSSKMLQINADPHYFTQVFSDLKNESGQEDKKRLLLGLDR
Cyclin-dependent kinase 1, sequence (P06493 whole entry): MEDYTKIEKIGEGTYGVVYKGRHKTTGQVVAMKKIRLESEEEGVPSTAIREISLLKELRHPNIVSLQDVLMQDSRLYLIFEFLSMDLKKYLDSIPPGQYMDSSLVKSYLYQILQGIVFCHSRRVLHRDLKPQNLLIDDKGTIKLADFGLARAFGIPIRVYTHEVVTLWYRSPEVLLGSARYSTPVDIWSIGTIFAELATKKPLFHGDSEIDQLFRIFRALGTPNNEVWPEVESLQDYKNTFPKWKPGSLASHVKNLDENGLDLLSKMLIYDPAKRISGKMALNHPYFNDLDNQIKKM
Cyclin-dependent kinase 1/cyclin B1, sequence (P06493 whole entry): as above
Cyclin-dependent kinase 1/cyclin B1, sequence (P14635 whole entry, further chain): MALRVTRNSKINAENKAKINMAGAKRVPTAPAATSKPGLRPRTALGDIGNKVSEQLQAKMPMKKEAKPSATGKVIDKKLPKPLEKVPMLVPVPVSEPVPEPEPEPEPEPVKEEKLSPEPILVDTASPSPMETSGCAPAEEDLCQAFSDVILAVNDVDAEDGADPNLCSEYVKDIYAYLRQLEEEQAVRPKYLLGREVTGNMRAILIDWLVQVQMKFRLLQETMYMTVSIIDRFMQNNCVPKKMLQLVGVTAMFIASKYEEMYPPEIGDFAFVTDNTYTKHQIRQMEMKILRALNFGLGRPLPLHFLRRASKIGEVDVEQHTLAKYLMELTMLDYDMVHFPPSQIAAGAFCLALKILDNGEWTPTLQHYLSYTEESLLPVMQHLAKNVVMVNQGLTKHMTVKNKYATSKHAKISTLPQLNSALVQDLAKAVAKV
Cyclin-dependent kinase 4, sequence (P11802 whole entry): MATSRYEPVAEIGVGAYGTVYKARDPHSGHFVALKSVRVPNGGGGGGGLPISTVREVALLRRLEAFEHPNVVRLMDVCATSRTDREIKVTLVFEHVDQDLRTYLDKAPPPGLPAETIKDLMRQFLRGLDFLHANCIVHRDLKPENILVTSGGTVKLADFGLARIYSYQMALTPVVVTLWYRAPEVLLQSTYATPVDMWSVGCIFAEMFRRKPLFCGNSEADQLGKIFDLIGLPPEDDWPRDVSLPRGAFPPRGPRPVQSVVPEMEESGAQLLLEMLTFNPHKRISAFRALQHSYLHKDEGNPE
Cyclin-dependent kinase 9, sequence (P50750 whole entry, the tested form may be a part): as the sequence (P50750 whole entry) above
Cyclin-dependent kinase 3, sequence (Q00526 whole entry): as the sequence (Q00526 whole entry) above

Work on `OCCNc1cc(-c2cncc(NCc3cccc(F)c3)c2)c(Cl)cn1` yielded a pIC50 (CDK9/cyclin T1 [1]) of 8.10.

With `CS(=O)(=O)Cc1cccc(Nc2ncnc(-c3ccc(F)cc3OCc3ccccc3)n2)c1` the pIC50 [2] was 7.00, the pIC50 [3] was 6.82 and the pIC50 [4] was 6.89. The pIC50 [5] was 7.00.

`CS(=N)(=O)Cc1cccc(Nc2ncnc(-c3ccc(F)cc3OCc3cccc(F)c3)n2)c1` (configuration not stated) gave a pIC50 [6] of 6.59, a pIC50 [2] of 6.77 and a pIC50 [3] of 6.96. The pIC50 [7] was 6.96, the pIC50 [8] was 7.10 and the pIC50 [4] was 7.00. It also gave a pIC50 [5] of 7.00.

Compound `COc1ccnc2[nH]cc(-c3ccnc(N)n3)c12` [MERIOLIN 3] has a pIC50 [9] of 6.77.

Compound `CN1CC[C@H](c2c(O)cc(O)c3c(=O)cc(-c4ccc(F)cc4)oc23)[C@H](O)C1` has a CC50 at 72 h [10] of 0.2 µM, a pIC50 (CDK9/cyclin T1 [11]) of 8.68 and a pIC50 (CDK2/Cyclin A2) of 6.89.

With `CN1CC[C@H](c2c(O)cc(O)c3c(=O)cc(-c4ccccc4)oc23)[C@H](O)C1` the CC50 at 72 h [10] was 0.19 µM, the pIC50 (CDK9/cyclin T1 [11]) was 8.05 and the pIC50 (CDK2/Cyclin A2) was 6.71.

`CS(=O)(=O)Cc1cccc(Nc2ncnc(-c3ccc(F)cc3OCc3cccc(C(F)(F)F)c3)n2)c1` showed a pIC50 [2] of 5.89.

In the case of `O=C1NC(=O)c2c1c1c3c4c2-c2ccccc2C4C2CCC(O2)C3c2ccccc2-1` (configuration not stated), the inhibition [12] was greater than 75% and the inhibition [13] was greater than 75%.

`CN1CC[C@H](c2c(O)cc(O)c3c(=O)cc(-c4ccc(O)cc4)oc23)[C@H](O)C1` showed a CC50 at 72 h [10] of 20.9 µM, a pIC50 (CDK9/cyclin T1 [11]) of 8.02 and a pIC50 (CDK2/Cyclin A2) of 6.71.

For `CN1CC[C@H](c2c(O)cc(O)c3c(=O)cc(-c4ccc(C(F)(F)F)cc4)oc23)[C@H](O)C1`, the CC50 at 72 h [10] was 1.2 µM, the pIC50 (CDK9/cyclin T1 [11]) was 7.72 and the pIC50 (CDK2/Cyclin A2) was 6.52.

For `O=C1Cc2c([nH]c3ccc([N+](=O)[O-])cc23)-c2ccccc2N1`, the inhibition [12] was greater than 75% and the inhibition [13] was greater than 75%.

Compound `CN1CC[C@H](c2c(O)cc(O)c3c(=O)cc(-c4ccc(Br)cc4)oc23)[C@H](O)C1` has a CC50 at 72 h [10] of 0.28 µM, a pIC50 (CDK9/cyclin T1 [11]) of 8.26 and a pIC50 (CDK2/Cyclin A2) of 6.65.

Compound `C=Cc1ccc(-c2cc(=O)c3c(O)cc(O)c([C@H]4CCN(C)C[C@H]4O)c3o2)cc1` has a CC50 at 72 h [10] of 0.219 µM, a pIC50 (CDK9/cyclin T1 [11]) of 8.02 and a pIC50 (CDK2/Cyclin A2) of 6.69.

Compound `COc1ccccc1-c1cc(Nc2ccc(F)c(NS(C)(=O)=O)c2)ncn1` has a pKi [14] of less than 6.00, a pKi [15] of less than 6.00 and a pKi [16] of 7.77. For the same compound, the pKi [17] was less than 6.00, the pKi [18] was less than 6.00 and the pKi [19] was less than 6.00.

In the case of `CN1CC[C@H](c2c(O)cc(O)c3c(=O)cc(-c4ccncc4)oc23)[C@H](O)C1`, the CC50 at 72 h [10] was 3.35 µM, the pIC50 (CDK9/cyclin T1 [11]) was 8.19 and the pIC50 (CDK2/Cyclin A2) was 6.68.

For `Nc1nccc(-c2c[nH]c3nccc(O)c23)n1` [MERIOLIN 2], the pIC50 [9] was 7.24.

Work on `COc1cc(F)ccc1-c1ccnc(NC(=O)[C@H]2CCC[C@@H](NC(C)=O)C2)c1` yielded a pIC50 (CDK2/Cyclin A1) of 5.97 to 7.03, a pIC50 [20] of 5.97 to 7.03 and a pIC50 (CDK3/Cyclin E) of 5.97 to 7.03. For the same compound, the pIC50 [21] was 5.97 to 7.03.

With `CCCOc1ccnc2[nH]cc(-c3ccnc(N)n3)c12` [MERIOLIN 5] the pIC50 [9] was 8.15 and the pIC50 (CDK9/cyclin T1 [22]) was 8.22.
